Measured values taken from patent US8906889B2, “C-3 cycloalkenyl triterpenoids with HIV maturation inhibitory activity” (priority 2012, dated 2014).
Counter-ions that a name gives are not always drawn.

These compounds were tested on recombinant NL4-3 virus (Renilla luciferase, Gag P373S) (assay: HIV cell culture assay (luciferase reporter, MT-2 cells)). Details: Renilla, NL43, MT-2 cells infected for 4-5 days with NLRluc recombinants; luciferase activity.
Type: cell-based
Experimental: MT-2 cells and 293T cells were obtained from the NIH AIDS Research and Reference Reagent Program. MT-2 cells were propagated in RPMI 1640 media supplemented with 10% heat inactivated fetal bovine serum, […]. The 293T cells were propagated in DMEM media supplemented with 10% heat inactivated fetal bovine serum (FBS), 100 units/ml penicillin G and 100 μg/ml streptomycin. The proviral DNA clone of NL4-3 was obtained from the NIH AIDS Research and Reference Reagent Program. A recombinant NL4-3 virus, in which a section of the nef gene from NL4-3 was replaced with the Renilla luciferase gene, was used as a reference virus. In addition, residue Gag P373 was converted to P373S. Briefly, the recombinant virus was prepared by transfection of the altered proviral clone of NL4-3. Transfections were performed in 293T cells using LipofectAMINE PLUS from Invitrogen (Carlsbad, Calif.), according to manufacturer's instruction. The virus was titered in MT-2 cells using luciferase enzyme activity as a marker. Luciferase was quantitated using the Dual Luciferase kit from Promega (Madison, Wis.), with modifications to the manufacturer's protocol. The diluted Passive Lysis solution was pre-mixed with the re-suspended Luciferase Assay Reagent and the re-suspended Stop & Glo Substrate (2:1:1 ratio). Fifty (50) μL of the mixture was added to each aspirated well on assay plates and luciferase activity was measured immediately on a Wallac TriLux (Perkin-Elmer). Antiviral activities of inhibitors toward the recombinant virus were quantified by measuring luciferase activity in cells infected for 4-5 days with NLRluc recombinants in the presence serial dilutions of the inhibitor.
`C=C(C)[C@@H]1CC[C@]2(NCCN3CCS(=O)(=O)CC3)CC[C@]3(C)[C@H](CC[C@@H]4[C@@]5(C)CC=C(C6=CC7(C6)CC(C(=O)O)(C(=O)O)C7)C(C)(C)[C@@H]5CC[C@]43C)[C@@H]12` [Example 1, 6-((1R,3aS,5aR,5bR,7aR,11aS,11bR,13aR,13bR)-3a-((2-(1,1-dioxidothiomorpholino)ethyl)amino)-5a,5b,8,8,11a-pentamethyl-1-(prop-1-en-2-yl)-2,3,3a,4,5,5a,5b,6,7,7a,8,11,11a,11b,12,13,13a,13b-octadecahydro-1H-cyclopenta[a]chrysen-9-yl)spiro[3.3]hept-5-ene-2,2-dicarboxylic acid, HCl] showed an EC50 of 10 nM.
`C=C(C)[C@@H]1CC[C@]2(NCCN3CCS(=O)(=O)CC3)CC[C@]3(C)[C@H](CC[C@@H]4[C@@]5(C)C=CC(=C6CC7(C6)CC(C(=O)O)(C(=O)O)C7)C(C)(C)[C@@H]5CC[C@]43C)[C@@H]12` [Example 2, 6-((1R,3aS,5aR,5bR,7aR,11aS,11bR,13aR,13bR)-3a-((2-(1,1-dioxidothiomorpholino)ethyl)amino)-5a,5b,8,8,11a-pentamethyl-1-(prop-1-en-2-yl)-2,3,3a,4,5,5a,6,7,7a,8,11b,12,13,13a-tetradecahydro-1H-cyclopenta[a]chrysen-9(5bH,11aH,13bH)-ylidene)spiro[3.3]heptane-2,2-dicarboxylic acid, HCl] showed an EC50 of 30 nM.
`C=C(C)[C@@H]1CC[C@]2(NCCN3CCS(=O)(=O)CC3)CC[C@]3(C)[C@H](CC[C@@H]4[C@@]5(C)CC=C(C6=CC7(C6)CC(C(=O)O)C7)C(C)(C)[C@@H]5CC[C@]43C)[C@@H]12` (stereo partly drawn) [Example 3, 6-((1R,3aS,5aR,5bR,7aR,11aS,11bR,13aR,13bR)-3a-((2-(1,1-dioxidothiomorpholino)ethyl)amino)-5a,5b,8,8,11a-pentamethyl-1-(prop-1-en-2-yl)-2,3,3a,4,5,5a,5b,6,7,7a,8,11,11a,11b,12,13,13a,13b-octadecahydro-1H-cyclopenta[a]chrysen-9-yl)spiro[3.3]hept-5-ene-2-carboxylic acid, HCl] was tested, and the EC50 was 1.54 nM.
Compound `C=C(C)[C@@H]1CC[C@]2(NCCN3CCS(=O)(=O)CC3)CC[C@]3(C)[C@H](CC[C@@H]4[C@@]5(C)CC=C(C6=CCC(C(=O)O)CC6)C(C)(C)[C@@H]5CC[C@]43C)[C@@H]12` (stereo partly drawn) [Example 4, 4-((1R,3aS,5aR,5bR,7aR,11aS,11bR,13aR,13bR)-3a-((2-(1,1-dioxidothiomorpholino)ethyl)amino)-5a,5b,8,8,11a-pentamethyl-1-(prop-1-en-2-yl)-2,3,3a,4,5,5a,5b,6,7,7a,8,11,11a,11b,12,13,13a,13b-octadecahydro-1H-cyclopenta[a]chrysen-9-yl)cyclohex-3-enecarboxylic acid, TFA] has an EC50 of 0.659 nM.
For `CC(C)[C@@H]1CC[C@]2(NCCN3CCS(=O)(=O)CC3)CC[C@]3(C)[C@H](CC[C@@H]4[C@@]5(C)CC=C(C6CC7(C6)CC(C(=O)O)(C(=O)O)C7)C(C)(C)[C@@H]5CC[C@]43C)[C@@H]12` [Example 5, 6-((1S,3aS,5aR,5bR,7aR,11aS,11bR,13aR,13bR)-3a-((2-(1,1-dioxidothiomorpholino)ethyl)amino)-1-isopropyl-5a,5b,8,8,11a-pentamethyl-2,3,3a,4,5,5a,5b,6,7,7a,8,11,11a,11b,12,13,13a,13b-octadecahydro-1H-cyclopenta[a]chrysen-9-yl)spiro[3.3]heptane-2,2-dicarboxylic acid, TFA], the EC50 was 40 nM.
In the case of `C=C(C)[C@@H]1CC[C@]2(C(=O)O)CC[C@]3(C)[C@H](CC[C@@H]4[C@@]5(C)CC=C(C6=CC7(C6)CC(C(=O)O)(C(=O)O)C7)C(C)(C)[C@@H]5CC[C@]43C)[C@@H]12` [Example 6, 6-((1R,3aS,5aR,5bR,7aR,11aS,11bR,13aR,13bR)-3a-carboxy-5a,5b,8,8,11a-pentamethyl-1-(prop-1-en-2-yl)-2,3,3a,4,5,5a,5b,6,7,7a,8,11,11a,11b,12,13,13a,13b-octadecahydro-1H-cyclopenta[a]chrysen-9-yl)spiro[3.3]hept-5-ene-2,2-dicarboxylic acid], the EC50 is reported as 30 nM.
`C=C(C)[C@@H]1CC[C@]2(NCCN3CCS(=O)(=O)CC3)CC[C@]3(C)[C@H](CC[C@@H]4[C@@]5(C)CC=C(C6=CCC(C(=O)O)(C(=O)O)CC6)C(C)(C)[C@@H]5CC[C@]43C)[C@@H]12` [Example 7, 4-((1R,3aS,5aR,5bR,7aR,11aS,11bR,13aR,13bR)-3a-((2-(1,1-dioxidothiomorpholino)ethyl)amino)-5a,5b,8,8,11a-pentamethyl-1-(prop-1-en-2-yl)-2,3,3a,4,5,5a,5b,6,7,7a,8,11,11a,11b,12,13,13a,13b-octadecahydro-1H-cyclopenta[a]chrysen-9-yl)cyclohex-3-ene-1,1-dicarboxylic acid, TFA] showed an EC50 of 100 nM.
In the case of `CC(C)[C@@H]1CC[C@]2(NCCN3CCS(=O)(=O)CC3)CC[C@]3(C)[C@H](CC[C@@H]4[C@@]5(C)CC=C(C6=CCC(C(=O)O)CC6)C(C)(C)[C@@H]5CC[C@]43C)[C@@H]12` (stereo partly drawn) [Example 8, 4-((1S,3aS,5aR,5bR,7aR,11aS,11bR,13aR,13bR)-3a-((2-(1,1-dioxidothiomorpholino)ethyl)amino)-1-isopropyl-5a,5b,8,8,11a-pentamethyl-2,3,3a,4,5,5a,5b,6,7,7a,8,11,11a,11b,12,13,13a,13b-octadecahydro-1H-cyclopenta[a]chrysen-9-yl)cyclohex-3-enecarboxylic acid, TFA], the EC50 is reported as 1.01 nM.
`C=C(C)[C@@H]1CC[C@]2(NCCN3CCS(=O)(=O)CC3)CC[C@]3(C)[C@H](CC[C@@H]4[C@@]5(C)CC=C(C6=CCC(O)(C(=O)O)CC6)C(C)(C)[C@@H]5CC[C@]43C)[C@@H]12` (stereo partly drawn) [Example 11, 4-((1R,3aS,5aR,5bR,7aR,11aS,11bR,13aR,13bR)-3a-((2-(1,1-dioxidothiomorpholino)ethyl)amino)-5a,5b,8,8,11a-pentamethyl-1-(prop-1-en-2-yl)-2,3,3a,4,5,5a,5b,6,7,7a,8,11,11a,11b,12,13,13a,13b-octadecahydro-1H-cyclopenta[a]chrysen-9-yl)-1-hydroxycyclohex-3-enecarboxylic acid, TFA] showed an EC50 of 1.99 nM.
`C=C(C)[C@@H]1CC[C@]2(NCCN3CCN(S(C)(=O)=O)CC3)CC[C@]3(C)[C@H](CC[C@@H]4[C@@]5(C)CC=C(C6=CCC(C(=O)O)CC6)C(C)(C)[C@@H]5CC[C@]43C)[C@@H]12` (stereo partly drawn) [Example 12, 4-((1R,3aS,5aR,5bR,7aR,11aS,11bR,13aR,13bR)-5a,5b,8,8,11a-pentamethyl-3a-((2-(4-(methylsulfonyl)piperazin-1-yl)ethyl)amino)-1-(prop-1-en-2-yl)-2,3,3a,4,5,5a,5b,6,7,7a,8,11,11a,11b,12,13,13a,13b-octadecahydro-1H-cyclopenta[a]chrysen-9-yl)cyclohex-3-enecarboxylic acid, TFA] showed an EC50 of 3.03 nM.
For `C=C(C)[C@@H]1CC[C@]2(NCCN3CCC(S(C)(=O)=O)CC3)CC[C@]3(C)[C@H](CC[C@@H]4[C@@]5(C)CC=C(C6=CCC(C(=O)O)CC6)C(C)(C)[C@@H]5CC[C@]43C)[C@@H]12` (stereo partly drawn) [Example 13, 4-((1R,3aS,5aR,5bR,7aR,11aS,11bR,13aR,13bR)-5a,5b,8,8,11a-pentamethyl-3a-((2-(4-(methylsulfonyl)piperidin-1-yl)ethyl)amino)-1-(prop-1-en-2-yl)-2,3,3a,4,5,5a,5b,6,7,7a,8,11,11a,11b,12,13,13a,13b-octadecahydro-1H-cyclopenta[a]chrysen-9-yl)cyclohex-3-enecarboxylic acid, TFA], the EC50 was 0.975 nM.
